We go through one compound from publication PMC3361763 (2011).

Structures are written as SMILES.

What is called IC50 is the concentration that inhibits the measured activity by half. A lower IC50 goes with greater potency in that assay.

Assay [1] deals with CDK6 (Homo sapiens, UniProt Q00534). Description: radiometric kinase assay. The assay is classed as biochemical.
The target of assay [2] is CDK4 (Homo sapiens, UniProt P11802). Kind of assay: radiometric kinase assay. It counts as biochemical.
CDK4, sequence (P11802 2-303): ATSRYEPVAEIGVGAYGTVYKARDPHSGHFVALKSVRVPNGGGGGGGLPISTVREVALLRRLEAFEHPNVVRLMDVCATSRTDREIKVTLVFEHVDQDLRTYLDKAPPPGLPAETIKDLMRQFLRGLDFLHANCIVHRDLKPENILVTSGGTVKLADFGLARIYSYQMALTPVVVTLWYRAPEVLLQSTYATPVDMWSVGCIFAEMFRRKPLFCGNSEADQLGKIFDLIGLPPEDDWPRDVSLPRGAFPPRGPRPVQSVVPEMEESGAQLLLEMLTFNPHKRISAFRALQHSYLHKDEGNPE

CDK6, sequence (Q00534 whole entry): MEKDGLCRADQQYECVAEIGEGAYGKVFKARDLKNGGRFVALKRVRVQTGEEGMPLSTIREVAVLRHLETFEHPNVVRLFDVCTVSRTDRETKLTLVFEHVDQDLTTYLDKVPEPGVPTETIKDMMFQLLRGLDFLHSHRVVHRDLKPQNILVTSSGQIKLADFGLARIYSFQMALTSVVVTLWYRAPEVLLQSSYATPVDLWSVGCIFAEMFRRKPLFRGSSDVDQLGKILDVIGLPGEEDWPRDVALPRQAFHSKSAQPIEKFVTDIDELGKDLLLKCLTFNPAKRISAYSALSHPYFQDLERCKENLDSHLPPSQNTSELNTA

`O=C(O)CN(CC(=O)O)Cc1cc2c(cc1O)Oc1cc(O)c(CN(CC(=O)O)CC(=O)O)cc1C21OC(=O)c2ccccc21` [calcein, 4′5′-bis(N, N-bis(carboxymethyl)aminomethyl) fluorescein] registered an IC50 in assay [1] of 75 µM. Besides, the “radiometric kinase assay (GST-Rb substrate) on CDK4 immunoprecipitated from HCT1” value in assay [2] is ~ 75 μM.
